Source: BindingDB's records for PubMed 11546835 (Mcgill University, 2001)
Several values for one entry are separate records, joined by “and”; a condition that tells them apart may be missing. Equal values may be shown once. Residues, ends and D or L forms follow the SMILES beside them.

Target: Nociceptin receptor (Mus musculus, UniProt P35377)
Sequence (P35377 whole entry): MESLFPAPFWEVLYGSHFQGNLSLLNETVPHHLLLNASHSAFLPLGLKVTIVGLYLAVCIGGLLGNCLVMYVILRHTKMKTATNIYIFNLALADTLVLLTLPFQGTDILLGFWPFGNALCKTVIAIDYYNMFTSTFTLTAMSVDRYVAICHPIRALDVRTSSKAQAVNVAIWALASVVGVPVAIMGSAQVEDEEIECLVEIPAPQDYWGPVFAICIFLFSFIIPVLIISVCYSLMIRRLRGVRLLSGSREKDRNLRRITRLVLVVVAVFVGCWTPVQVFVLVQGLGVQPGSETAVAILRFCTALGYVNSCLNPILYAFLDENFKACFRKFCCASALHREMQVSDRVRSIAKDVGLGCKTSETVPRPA

Compound	Ki
CC(C)C[C@H](NC(=O)[C@H](Cc1ccccc1)NC(=O)CNC(=O)CNC(=O)[C@@H](N)Cc1ccc(O)cc1)C(=O)N[C@@H](CCCN=C(N)N)C(=O)N[C@@H](CCCN=C(N)N)C(=O)N[C@@H](CCC(N)=O)C(=O)N[C@@H](Cc1ccccc1)C(=O)N[C@@H](CCCCN)C(=O)N[C@H](C(=O)N[C@H](C(=O)N[C@H](C(=O)O)[C@@H](C)O)C(C)C)C(C)C [Dynorphin B (1-13)]	33.9 nM and 247 nM
CC(C)C[C@H](NC(=O)[C@H](Cc1ccccc1)NC(=O)CNC(=O)CNC(=O)[C@@H](N)Cc1ccc(O)cc1)C(=O)N[C@@H](CCCNC(=N)N)C(=O)N[C@@H](CCCCN)C(=O)N[C@@H](Cc1ccc(O)cc1)C(=O)N1CCC[C@H]1C(=O)N[C@@H](CCCCN)C(=O)O [CB0427223] (H-YGGFLRKYPK-OH)	192 nM
Oc1ccc2c3c1OC1c4[nH]c5c(c4CC4(O)CN(CCC314)C(C1CC1)C2)CC1(O)CN2CCC13c1c(ccc(O)c1OC53)CC2C1CC1 (stereo not given) [CAS_105618-26-6]	898 nM and 7500 nM
CSCC[C@H](NC(=O)[C@H](Cc1ccccc1)NC(=O)CNC(=O)CNC(=O)[C@@H](N)Cc1ccc(O)cc1)C(=O)O [2-[(S)-2-(2-{2-[(S)-2-Amino-3-(4-hydroxy-phenyl)-propionylamino]-acetylamino}-acetylamino)-1-oxo-3-phenyl-propylamino]-4-methylsulfanyl-butyric acid]	1000 nM
C[C@H](NC(=O)CNC(=O)[C@@H](NC(=O)[C@H](Cc1ccccc1)NC(=O)CNC(=O)CNC(=O)[C@@H](N)Cc1ccccc1)[C@@H](C)O)C(=O)O [OFQ/N (1-7)] (H-FGGFTGA-OH)	440 nM and 360 nM
